From paper PMC3826149, “Red Algal Bromophenols as Glucose 6-Phosphate Dehydrogenase Inhibitors” (Marine Drugs, 2013)

Legend:
[1] = biological target: T1, glucose 6-phosphate dehydrogenase (G6PD) (Leuconostoc mesenteroides, UniProt P11411); experiment: G6PD enzyme inhibition assay (colorimetric, WST-1/1-methoxy PMS); type: biochemical; details: for IC50: Mean ± SD (n = 3), glucose 6-phosphate 3.0 mM, NADP+ 0.3 mM, read-out: IC50 on glucose 6-phosphate dehydrogenase (G6PD) reaction; for G6PD inhibition in words: qualitative statement
T1 construct: purchased Sigma-Aldrich (St. Louis, MO, USA)
T1 sequence (P11411 1-486): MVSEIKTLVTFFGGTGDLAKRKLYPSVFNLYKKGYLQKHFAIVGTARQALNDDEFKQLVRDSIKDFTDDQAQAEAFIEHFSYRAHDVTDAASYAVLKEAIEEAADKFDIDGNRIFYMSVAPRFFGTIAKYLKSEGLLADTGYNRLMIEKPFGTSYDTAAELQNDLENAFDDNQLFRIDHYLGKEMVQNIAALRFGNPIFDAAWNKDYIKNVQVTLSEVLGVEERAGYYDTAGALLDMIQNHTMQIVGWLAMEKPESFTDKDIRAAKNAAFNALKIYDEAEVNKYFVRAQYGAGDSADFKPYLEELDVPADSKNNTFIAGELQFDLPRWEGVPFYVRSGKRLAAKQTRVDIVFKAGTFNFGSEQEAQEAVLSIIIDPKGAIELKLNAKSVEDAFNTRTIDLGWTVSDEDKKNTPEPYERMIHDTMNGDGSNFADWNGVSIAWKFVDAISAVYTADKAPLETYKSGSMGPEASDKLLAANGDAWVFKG
Description: G6PD (EC 1.1.1.49) from Leuconostoc mesenteroides was purchased from Sigma-Aldrich (St. Louis, MO, USA). WST-1 and 1-methoxy-5-methylphenazinium methylsulfate (1-methoxy PMS) were purchased from Dojindo Laboratories (Mashiki, Kumamoto, Japan) and oxidized nicotinamide adenine dinucleotide phosphate (NADP^+) from Oriental Yeast Industries (Tokyo, Japan). Glucose 6-phosphate was purchased from Wako Pure Chemicals (Tokyo, Japan). Epigallocatechin gallate (EGCG) was purchased from Cayman Chemical Company (Ann Arbor, MI, USA). Thin layer chromatography (TLC) was carried out using a glass plate precoated with silica gel 60 F254 and RP-18 (Merck, Darmstadt, Germany), and spots were detected under UV light and visualized by spraying 50% sulfuric acid and potassium ferricyanide-ferric chloride reagents. NMR spectra were recorded in acetone-d6 on a Bruker AMX-500 (Karlsruhe, Germany) spectrometer at 500 MHz for proton and 125 MHz for carbon chemical shifts. Field desorption-MS spectra were recorded on a JEOL JMS-T100GCV spectrometer (Tokyo, Japan).
Enzyme assay was carried out by colorimetric method as described in literature with slight modification. The reaction mixture was prepared by adding 135 mM Tris-HCl buffer (pH 7.8, 675 μL), 30 mM glucose 6-phosphate (100 μL), 3 mM NADP^+ (100 μL), 20 mM MgCl2 (100 μL) and test materials in MeOH (15 μL). Reaction was initiated by adding 0.035 U/mL G6PD solution (10 μL) to the reaction mixture. Each reaction was carried out at 25 °C for 15 min and terminated by adding 1 mL of saturated aqueous NaCl solution. For determination of produced NADPH, 0.05 mM WST-1 (400 μL) and 0.025 mM 1-methoxy PMS (400 μL) were mixed to the reaction mixture (400 μL) and the absorbance was measured at 438 nm. EGCG was used as a positive control.

purified α-glucosidase = biological target: purified α-glucosidase; design: method as in PMID 20629879; details: previous study; cited from earlier work
[2] = read-out: Inhibition (%) of G6PD

Row | SMILES | IC50 [1] [µM] | G6PD inhibition in words [1] | further results
1 | O=Cc1cc(Br)c(O)c(Br)c1 [Compound 1] | 76.6 ± 1.1 |  | 
2 | OCc1cc(O)c(O)c(Br)c1 [Compound 2] | > 370 | low inhibition | inhibition at 370 µM [1, 2]: 37.6%
3 | COCc1cc(O)c(O)c(Br)c1 [Compound 3] | > 340 | low inhibition | inhibition at 340 µM [1, 2]: 35.7%
4 | OCc1cc(O)c(O)c(Br)c1Cc1cc(O)c(O)c(Br)c1Br [Compound 4] | 4.01 ± 0.3 |  | 
5 | Oc1cc(COCc2cc(O)c(O)c(Br)c2Br)c(Br)c(Br)c1O [Compound 5] | 0.85 ± 0.1 |  | fold lower IC50 value than epigallocatechin gallate (EGCG) ([1]; G6PD IC50 relative to known inhibitor EGCG): 9.1 fold; IC50 (purified α-glucosidase): 1000 to 1200 µM
6 | O=C(O[C@@H]1Cc2c(O)cc(O)cc2O[C@@H]1c1cc(O)c(O)c(O)c1)c1cc(O)c(O)c(O)c1 [Epigallocatechin gallate, reference compound] | 7.7 ± 0.14 |  | 
